# Legend:
# [1] = target: T1, MAP2K5 (Homo sapiens, UniProt Q13163); assay: KinomeScan competition binding assay; conditions: 10 μM levosimendan
# T1 construct: DiscoverX KinomeScan panel kinase
# [2] = target: T2, MYLK4 (Homo sapiens, UniProt Q86YV6); assay: KinomeScan competition binding assay; set-up: DiscoverX KinomeScan panel kinase; conditions: 100 μM levosimendan
# T2 sequence (Q86YV6 1-388): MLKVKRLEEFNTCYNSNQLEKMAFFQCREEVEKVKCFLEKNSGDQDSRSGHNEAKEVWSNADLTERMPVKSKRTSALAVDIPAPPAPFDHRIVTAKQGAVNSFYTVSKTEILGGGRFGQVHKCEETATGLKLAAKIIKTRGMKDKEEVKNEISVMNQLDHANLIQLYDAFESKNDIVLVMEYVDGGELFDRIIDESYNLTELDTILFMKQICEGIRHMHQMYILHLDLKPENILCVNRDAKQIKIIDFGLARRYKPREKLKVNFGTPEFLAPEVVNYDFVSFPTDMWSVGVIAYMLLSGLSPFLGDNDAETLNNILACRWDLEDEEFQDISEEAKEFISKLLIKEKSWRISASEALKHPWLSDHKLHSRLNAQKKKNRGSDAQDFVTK
# [3] = target: ACVR1 (Homo sapiens, UniProt Q04771); assay: biochemical; set-up: DiscoverX KinomeScan competition binding assay across human kinases; per cent of control at 10 and 100 uM; conditions: competition binding, % of control
# Summary of the method: (§1)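 Binding is expressed as %control, normalised between positive and negative control signals. The compound (levosimendan) was tested at 10 μM and 100 μM in the DiscoverX KinomeScan competition binding format against human kinases.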
# [4] = target: EPHB4 (Homo sapiens, UniProt P54760); assay: biochemical; set-up: DiscoverX KinomeScan competition binding assay across human kinases; per cent of control at 10 and 100 uM; conditions: competition binding, % of control; read-out: Percent Control (100 uM Levosimendan)
# Summary of the method: as §1
# [5] = target: MAP3K1 (Homo sapiens, UniProt Q13233); assay: biochemical; set-up: DiscoverX KinomeScan competition binding assay across human kinases; per cent of control at 10 and 100 uM; conditions: competition binding, % of control; read-out: Percent Control (100 uM Levosimendan)
# Summary of the method: as §1
# [6] = target: MARK3 (Homo sapiens, UniProt P27448); assay: biochemical; set-up: DiscoverX KinomeScan competition binding assay across human kinases; per cent of control at 10 and 100 uM; conditions: competition binding, % of control; read-out: Percent Control (100 uM Levosimendan)
# Summary of the method: as §1
# [7] = target: T3, MLK2 (Homo sapiens, UniProt Q02779); assay: biochemical; set-up: DiscoverX KinomeScan competition binding assay across human kinases; per cent of control at 10 and 100 uM; conditions: competition binding, % of control; read-out: Percent Control (100 uM Levosimendan)
# T3 construct: gene MAP3K10
# Summary of the method: as §1
# [8] = target: T4, JAK1(JH1domain-catalytic) (Homo sapiens, UniProt P23458); assay: biochemical; set-up: DiscoverX KinomeScan competition binding assay across human kinases; per cent of control at 10 and 100 uM; conditions: competition binding, % of control; read-out: Percent Control (100 uM Levosimendan)
# T4 construct: JH1domain-catalytic
# Summary of the method: as §1
# [9] = target: BMPR1A (Homo sapiens, UniProt P36894); assay: biochemical; set-up: DiscoverX KinomeScan competition binding assay across human kinases; per cent of control at 10 and 100 uM; conditions: competition binding, % of control; read-out: Percent Control (100 uM Levosimendan)
# Summary of the method: as §1
# [10] = target: VRK2 (Homo sapiens, UniProt Q86Y07); assay: biochemical; set-up: DiscoverX KinomeScan competition binding assay across human kinases; per cent of control at 10 and 100 uM; conditions: competition binding, % of control; read-out: Percent Control (100 uM Levosimendan)
# Summary of the method: as §1
# [11] = target: ZAP70 (Homo sapiens, UniProt P43403); assay: biochemical; set-up: DiscoverX KinomeScan competition binding assay across human kinases; per cent of control at 10 and 100 uM; conditions: competition binding, % of control; read-out: Percent Control (100 uM Levosimendan)
# Summary of the method: as §1
# [12] = target: EGFR(L747-E749del, A750P) (Homo sapiens, UniProt P00533, A750P/DEL747-749); assay: biochemical; set-up: DiscoverX KinomeScan competition binding assay across human kinases; per cent of control at 10 and 100 uM; conditions: competition binding, % of control; read-out: Percent Control (100 uM Levosimendan)
# Summary of the method: as §1
# [13] = target: T5, RIOK3 (Homo sapiens, UniProt O14730); assay: KinomeScan competition binding assay; set-up: DiscoverX KinomeScan panel kinase; conditions: 10 μM and 100 μM levosimendan
# T5 sequence (O14730 1-519): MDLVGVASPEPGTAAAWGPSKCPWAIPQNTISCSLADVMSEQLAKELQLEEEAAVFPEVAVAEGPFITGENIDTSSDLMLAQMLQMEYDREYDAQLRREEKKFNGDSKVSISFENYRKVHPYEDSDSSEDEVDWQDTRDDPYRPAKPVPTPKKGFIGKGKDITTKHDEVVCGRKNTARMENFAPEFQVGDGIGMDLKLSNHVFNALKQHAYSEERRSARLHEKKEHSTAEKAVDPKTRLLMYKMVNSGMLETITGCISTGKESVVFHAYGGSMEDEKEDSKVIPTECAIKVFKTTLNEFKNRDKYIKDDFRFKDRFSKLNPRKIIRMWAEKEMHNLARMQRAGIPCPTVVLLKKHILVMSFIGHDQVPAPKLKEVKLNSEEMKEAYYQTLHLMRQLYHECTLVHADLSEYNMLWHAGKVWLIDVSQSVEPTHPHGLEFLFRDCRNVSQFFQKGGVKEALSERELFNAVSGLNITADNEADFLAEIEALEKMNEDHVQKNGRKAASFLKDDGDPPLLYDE
# Sequence of ACVR1 (Q04771 whole entry): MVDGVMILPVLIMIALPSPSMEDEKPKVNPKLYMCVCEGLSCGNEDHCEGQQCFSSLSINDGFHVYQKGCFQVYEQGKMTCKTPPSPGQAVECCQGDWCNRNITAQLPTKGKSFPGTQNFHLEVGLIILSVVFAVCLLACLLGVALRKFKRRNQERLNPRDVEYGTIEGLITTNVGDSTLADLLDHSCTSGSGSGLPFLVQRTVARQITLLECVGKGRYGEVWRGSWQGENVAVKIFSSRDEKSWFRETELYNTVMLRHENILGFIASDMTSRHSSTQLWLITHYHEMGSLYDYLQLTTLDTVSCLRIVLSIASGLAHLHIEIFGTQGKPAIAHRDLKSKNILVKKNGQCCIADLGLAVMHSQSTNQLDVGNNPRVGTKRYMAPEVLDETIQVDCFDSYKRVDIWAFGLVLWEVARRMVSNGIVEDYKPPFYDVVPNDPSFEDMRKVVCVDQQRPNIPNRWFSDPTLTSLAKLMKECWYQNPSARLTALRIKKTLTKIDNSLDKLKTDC
# T3 sequence (Q02779 whole entry): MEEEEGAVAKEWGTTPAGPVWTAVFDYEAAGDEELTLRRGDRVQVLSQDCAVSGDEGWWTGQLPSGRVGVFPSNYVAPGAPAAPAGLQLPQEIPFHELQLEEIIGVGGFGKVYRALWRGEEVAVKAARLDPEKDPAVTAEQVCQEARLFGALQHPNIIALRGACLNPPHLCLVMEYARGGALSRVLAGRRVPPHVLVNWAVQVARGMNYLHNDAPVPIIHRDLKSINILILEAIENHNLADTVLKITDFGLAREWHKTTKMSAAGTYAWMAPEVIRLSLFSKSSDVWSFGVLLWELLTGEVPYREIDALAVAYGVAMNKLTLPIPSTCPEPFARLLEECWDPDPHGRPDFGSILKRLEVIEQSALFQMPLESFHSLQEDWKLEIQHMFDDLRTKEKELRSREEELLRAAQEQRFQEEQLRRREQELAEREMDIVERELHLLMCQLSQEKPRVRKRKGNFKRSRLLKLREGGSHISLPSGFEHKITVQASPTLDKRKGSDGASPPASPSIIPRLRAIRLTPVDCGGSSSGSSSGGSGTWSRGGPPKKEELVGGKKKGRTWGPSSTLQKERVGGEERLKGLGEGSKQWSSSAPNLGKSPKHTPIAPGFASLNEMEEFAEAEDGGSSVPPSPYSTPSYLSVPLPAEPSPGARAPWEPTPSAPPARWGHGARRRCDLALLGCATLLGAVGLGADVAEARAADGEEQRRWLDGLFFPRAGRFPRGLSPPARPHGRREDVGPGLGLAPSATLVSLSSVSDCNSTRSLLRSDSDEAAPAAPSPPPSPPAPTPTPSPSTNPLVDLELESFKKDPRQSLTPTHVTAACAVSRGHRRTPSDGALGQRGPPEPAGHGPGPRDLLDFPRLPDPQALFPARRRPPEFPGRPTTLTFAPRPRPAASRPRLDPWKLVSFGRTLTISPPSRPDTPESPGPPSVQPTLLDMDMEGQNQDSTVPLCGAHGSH
# Sequence of BMPR1A (P36894 whole entry): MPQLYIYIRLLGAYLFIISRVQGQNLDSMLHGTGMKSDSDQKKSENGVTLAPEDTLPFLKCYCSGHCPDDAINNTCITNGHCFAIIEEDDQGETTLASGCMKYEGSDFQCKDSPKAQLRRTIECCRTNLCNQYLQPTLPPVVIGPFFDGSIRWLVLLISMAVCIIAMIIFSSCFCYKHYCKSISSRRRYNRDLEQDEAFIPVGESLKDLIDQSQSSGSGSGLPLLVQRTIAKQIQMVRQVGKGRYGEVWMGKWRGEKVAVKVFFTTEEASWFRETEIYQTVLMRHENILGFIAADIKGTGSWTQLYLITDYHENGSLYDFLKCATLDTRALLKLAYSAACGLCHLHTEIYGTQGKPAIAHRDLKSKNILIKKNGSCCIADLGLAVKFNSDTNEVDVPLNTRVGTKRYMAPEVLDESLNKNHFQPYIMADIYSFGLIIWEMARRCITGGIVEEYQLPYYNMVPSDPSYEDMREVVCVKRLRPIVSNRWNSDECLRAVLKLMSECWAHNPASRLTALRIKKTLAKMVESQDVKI
# Sequence of MARK3 (P27448 whole entry): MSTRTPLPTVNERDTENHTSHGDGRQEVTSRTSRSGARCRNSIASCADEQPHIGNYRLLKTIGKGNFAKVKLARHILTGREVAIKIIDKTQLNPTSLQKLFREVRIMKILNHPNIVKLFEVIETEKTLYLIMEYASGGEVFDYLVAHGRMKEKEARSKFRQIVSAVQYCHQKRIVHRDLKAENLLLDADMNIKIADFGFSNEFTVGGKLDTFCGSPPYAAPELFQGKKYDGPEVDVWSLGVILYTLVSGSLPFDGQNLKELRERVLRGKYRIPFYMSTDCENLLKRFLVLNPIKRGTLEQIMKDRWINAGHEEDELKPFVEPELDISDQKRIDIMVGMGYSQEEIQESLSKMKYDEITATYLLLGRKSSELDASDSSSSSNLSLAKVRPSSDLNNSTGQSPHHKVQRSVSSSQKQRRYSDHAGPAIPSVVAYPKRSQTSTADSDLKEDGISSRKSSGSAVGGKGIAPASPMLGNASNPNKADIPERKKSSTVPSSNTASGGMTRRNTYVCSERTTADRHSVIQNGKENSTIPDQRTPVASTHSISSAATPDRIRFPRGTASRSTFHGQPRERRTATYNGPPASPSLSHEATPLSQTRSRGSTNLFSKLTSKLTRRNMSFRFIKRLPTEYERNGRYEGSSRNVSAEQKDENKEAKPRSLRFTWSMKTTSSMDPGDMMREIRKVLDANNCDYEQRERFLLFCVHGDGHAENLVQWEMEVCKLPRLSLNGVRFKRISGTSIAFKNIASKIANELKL
# T1 sequence (Q13163 whole entry): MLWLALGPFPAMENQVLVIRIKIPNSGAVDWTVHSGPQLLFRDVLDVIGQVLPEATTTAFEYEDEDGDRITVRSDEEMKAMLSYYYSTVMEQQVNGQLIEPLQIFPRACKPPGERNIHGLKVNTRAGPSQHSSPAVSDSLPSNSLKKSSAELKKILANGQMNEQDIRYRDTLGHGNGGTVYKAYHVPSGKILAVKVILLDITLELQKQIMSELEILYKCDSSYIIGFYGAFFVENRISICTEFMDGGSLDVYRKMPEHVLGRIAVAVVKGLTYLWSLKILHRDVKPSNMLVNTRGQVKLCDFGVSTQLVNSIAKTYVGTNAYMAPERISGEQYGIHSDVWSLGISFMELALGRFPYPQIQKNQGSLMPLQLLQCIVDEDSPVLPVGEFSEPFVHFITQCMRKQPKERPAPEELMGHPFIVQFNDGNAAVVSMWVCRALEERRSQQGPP
# Sequence of MAP3K1 (Q13233 whole entry): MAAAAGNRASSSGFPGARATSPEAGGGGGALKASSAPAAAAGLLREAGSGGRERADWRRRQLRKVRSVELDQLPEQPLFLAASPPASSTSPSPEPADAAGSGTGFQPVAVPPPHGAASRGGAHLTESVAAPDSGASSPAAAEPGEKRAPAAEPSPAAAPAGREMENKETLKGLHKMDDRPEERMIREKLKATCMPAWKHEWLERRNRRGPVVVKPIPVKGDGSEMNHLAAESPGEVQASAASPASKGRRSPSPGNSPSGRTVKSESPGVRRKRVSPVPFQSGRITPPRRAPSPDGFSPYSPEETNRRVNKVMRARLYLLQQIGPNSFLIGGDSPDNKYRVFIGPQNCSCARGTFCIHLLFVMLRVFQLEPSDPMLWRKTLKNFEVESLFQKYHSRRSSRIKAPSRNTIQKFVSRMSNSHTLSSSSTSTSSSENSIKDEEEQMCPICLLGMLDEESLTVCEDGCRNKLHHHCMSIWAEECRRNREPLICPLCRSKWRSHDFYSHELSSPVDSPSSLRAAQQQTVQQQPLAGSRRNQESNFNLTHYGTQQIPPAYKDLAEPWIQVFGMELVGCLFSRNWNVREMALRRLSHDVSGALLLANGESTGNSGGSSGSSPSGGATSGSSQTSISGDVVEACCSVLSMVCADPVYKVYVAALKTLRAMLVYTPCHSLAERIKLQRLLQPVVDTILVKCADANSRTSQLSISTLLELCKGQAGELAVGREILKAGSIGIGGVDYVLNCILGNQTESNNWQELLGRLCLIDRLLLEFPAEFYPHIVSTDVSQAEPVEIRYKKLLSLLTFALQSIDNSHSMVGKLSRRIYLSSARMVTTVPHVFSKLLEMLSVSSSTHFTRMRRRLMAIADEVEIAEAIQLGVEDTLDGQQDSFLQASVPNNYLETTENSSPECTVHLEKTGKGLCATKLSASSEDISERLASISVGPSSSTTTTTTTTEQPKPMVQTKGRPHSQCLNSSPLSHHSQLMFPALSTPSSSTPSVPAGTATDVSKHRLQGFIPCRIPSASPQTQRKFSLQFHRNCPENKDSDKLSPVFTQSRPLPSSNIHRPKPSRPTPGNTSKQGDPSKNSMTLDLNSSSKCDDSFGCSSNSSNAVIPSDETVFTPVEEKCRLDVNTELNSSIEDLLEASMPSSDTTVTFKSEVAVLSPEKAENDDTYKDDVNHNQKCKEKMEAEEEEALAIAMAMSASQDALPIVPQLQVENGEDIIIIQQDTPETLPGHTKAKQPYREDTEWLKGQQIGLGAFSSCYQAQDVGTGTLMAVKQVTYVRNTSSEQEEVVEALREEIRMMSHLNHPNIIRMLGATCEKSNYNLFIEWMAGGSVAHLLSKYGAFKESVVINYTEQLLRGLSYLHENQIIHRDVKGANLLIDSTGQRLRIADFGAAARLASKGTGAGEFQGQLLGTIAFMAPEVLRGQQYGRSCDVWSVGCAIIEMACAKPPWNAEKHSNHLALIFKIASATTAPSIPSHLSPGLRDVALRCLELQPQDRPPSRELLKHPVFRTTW
structure (smiles),measurement,setting,value
C[C@@H]1CC(=O)NN=C1c1ccc(NN=C(C#N)C#N)cc1 [levosimendan],percentage control at 10 μM,[1],< 30.0%
same,percentage control at 100 μM,[2],two have intermediate binding affinities (MYLK4 and CAMK2)
same,remaining binding at 10 µM,[3]; read-out: Percent Control (10 uM Levosimendan),55%
same,remaining binding at 100 µM,[3]; read-out: Percent Control (100 uM Levosimendan),6.5%
same,remaining binding at 100 µM,[4],85%
same,remaining binding at 100 µM,[5],100%
same,remaining binding at 100 µM,[6],95%
same,remaining binding at 100 µM,[7],81%
same,remaining binding at 100 µM,[8],100%
same,remaining binding at 100 µM,[9],93%
same,remaining binding at 100 µM,[10],69%
same,remaining binding at 100 µM,[11],74%
same,remaining binding at 100 µM,[12],64%
same,percentage control,[13],"RIOK3, the closest homolog of RIOK1, showed the similar binding strength as RIOK1"

# From article PMC6576746, “Rational discovery of dual-indication multi-target PDE/Kinase inhibitor for precision anti-cancer therapy using structural systems pharmacology” (PLoS Computational Biology, 2019)
